The source made the active and inactive calls.
Assays:
[1] = molecular target: T1, Short transient receptor potential channel 4 (Mus musculus, UniProt Q9QUQ5); test: potentiation of DAMGO-evoked TRPC4 calcium signal – cell-based, HEK293 TRPC4/mu-opioid, Fluo-4 calcium, EC20 DAMGO, dose response (AID 434941); type: functional
T1 sequence (Q9QUQ5 whole entry): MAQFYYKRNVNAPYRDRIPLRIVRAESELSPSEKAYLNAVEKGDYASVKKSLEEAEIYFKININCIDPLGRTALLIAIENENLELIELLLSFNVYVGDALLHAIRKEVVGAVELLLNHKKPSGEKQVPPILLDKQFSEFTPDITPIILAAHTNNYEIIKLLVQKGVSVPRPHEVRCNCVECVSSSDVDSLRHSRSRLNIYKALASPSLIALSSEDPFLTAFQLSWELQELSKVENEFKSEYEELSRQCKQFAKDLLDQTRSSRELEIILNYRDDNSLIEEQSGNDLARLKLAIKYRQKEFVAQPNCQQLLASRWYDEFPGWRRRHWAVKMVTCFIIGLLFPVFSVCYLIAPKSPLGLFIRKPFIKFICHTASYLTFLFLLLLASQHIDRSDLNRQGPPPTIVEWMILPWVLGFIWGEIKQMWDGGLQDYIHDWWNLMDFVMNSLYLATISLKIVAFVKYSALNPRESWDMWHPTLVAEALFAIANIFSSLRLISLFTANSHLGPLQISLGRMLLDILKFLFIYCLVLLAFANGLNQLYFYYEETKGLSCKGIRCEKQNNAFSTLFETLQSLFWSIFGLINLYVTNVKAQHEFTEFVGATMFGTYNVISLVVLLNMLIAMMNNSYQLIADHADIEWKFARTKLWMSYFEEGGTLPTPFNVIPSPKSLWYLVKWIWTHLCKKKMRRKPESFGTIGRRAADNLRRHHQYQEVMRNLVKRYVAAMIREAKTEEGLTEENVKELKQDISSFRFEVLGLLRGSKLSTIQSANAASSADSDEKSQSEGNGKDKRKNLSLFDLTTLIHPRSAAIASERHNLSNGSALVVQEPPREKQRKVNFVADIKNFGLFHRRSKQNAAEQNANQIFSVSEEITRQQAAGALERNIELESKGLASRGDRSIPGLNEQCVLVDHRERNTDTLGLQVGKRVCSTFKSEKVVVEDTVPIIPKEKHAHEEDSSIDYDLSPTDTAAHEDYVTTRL

[2] = molecular target: T2, Ubiquitin-conjugating enzyme E2 N (Homo sapiens, UniProt P61088); type: functional;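 also: Dose-response confirmation in a TR-FRET assay detecting UBC13-driven polyubiquitin chain formation, inhibition measured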
T2 sequence (P61088 whole entry): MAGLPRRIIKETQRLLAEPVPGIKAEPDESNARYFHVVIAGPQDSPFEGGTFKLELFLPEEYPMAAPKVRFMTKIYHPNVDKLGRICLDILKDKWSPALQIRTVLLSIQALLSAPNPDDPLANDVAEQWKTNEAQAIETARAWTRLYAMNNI

[3] = molecular target: T3, DNA repair and recombination protein RAD54-like (Homo sapiens, UniProt Q92698); test: RAD54 Holliday junction migration blockers – biochemical, fluorescence, cherry-picked samples, dose series, confirmation (AID 651657); type: functional
T3 sequence (Q92698 whole entry): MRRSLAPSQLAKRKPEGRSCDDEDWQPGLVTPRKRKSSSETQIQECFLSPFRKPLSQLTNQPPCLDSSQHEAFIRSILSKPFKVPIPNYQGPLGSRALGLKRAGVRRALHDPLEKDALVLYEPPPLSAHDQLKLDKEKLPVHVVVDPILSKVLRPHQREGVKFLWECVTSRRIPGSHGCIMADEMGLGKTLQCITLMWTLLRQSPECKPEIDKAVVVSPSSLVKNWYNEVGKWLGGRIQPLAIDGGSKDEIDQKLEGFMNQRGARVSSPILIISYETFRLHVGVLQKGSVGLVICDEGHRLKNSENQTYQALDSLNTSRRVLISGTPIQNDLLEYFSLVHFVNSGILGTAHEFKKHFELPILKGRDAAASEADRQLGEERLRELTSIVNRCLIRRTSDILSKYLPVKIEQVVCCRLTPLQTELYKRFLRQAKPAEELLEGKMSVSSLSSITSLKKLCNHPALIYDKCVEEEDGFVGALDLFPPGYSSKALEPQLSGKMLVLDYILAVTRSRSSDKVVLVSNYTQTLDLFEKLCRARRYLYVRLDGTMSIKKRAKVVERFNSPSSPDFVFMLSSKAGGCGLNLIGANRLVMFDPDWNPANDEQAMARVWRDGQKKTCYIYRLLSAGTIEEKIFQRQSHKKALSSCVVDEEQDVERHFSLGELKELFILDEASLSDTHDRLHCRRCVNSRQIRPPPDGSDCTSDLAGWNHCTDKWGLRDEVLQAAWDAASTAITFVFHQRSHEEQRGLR

[4] = molecular target: CAAX prenyl protease 2 (Saccharomyces cerevisiae S288c, UniProt Q03530); type: biochemical
[5] = viability of uninfected HEp-2 cells – cell-based, HTS, cytotoxicity control for RSV inhibitor project, dose response (AID 2410); type: functional; details: human respiratory syncytial virus
[6] = test system: Vero; test: cells; type: functional, cell-based; details: Chlorocebus sabaeus
[7] = A Cell Based Assay for the Identification of Probe candidate Compounds with Anti- Venezuelan Equine Encephalitis virus. [Related pubchem assays: 2409, 2419, 1621, 2238, 2405, 2024, 2065, 2402, 2414, 1635, 1650, 2244 ]; type: functional
[8] = molecular target: Endoplasmic reticulum aminopeptidase 1 (Homo sapiens, UniProt Q9NZ08); test: inhibition of human ERAP1 enzyme activity – biochemical, cherry-pick, set 2, plate reader, dose response (AID 743314)
[9] = test system: Vero; test: Vero cell viability after compound exposure – synthesized analogs, set II, cytotoxicity control for West Nile virus antiviral project, SAR follow-up (AID 2402); type: functional; details: Chlorocebus sabaeus
[10] = test system: Vero; test: cells; type: functional; details: Chlorocebus sabaeus
[11] = test system: Vero; test: antiviral protection of cells from WNV – synthesized analogs, SAR follow-up (AID 2238); type: functional, cell-based; details: Chlorocebus sabaeus
[12] = test system: Vero; test: inhibition of WNV-induced cytopathic effect – cell-based, CPE readout (AID 1621); type: functional; details: Chlorocebus sabaeus
[13] = test system: Vero; test: host cell viability loss, Vero E6 – synthesized analogs, cytotoxicity control for West Nile virus antiviral project, SAR follow-up (AID 2244); type: functional; details: Chlorocebus sabaeus
[14] = test system: Vero; test: Vero 76 cell viability after compound exposure – Vero 76 cells, synthesized analogs, cytotoxicity control for West Nile virus antiviral project, SAR follow-up (AID 2414); type: functional; details: Chlorocebus sabaeus
[15] = molecular target: Intestinal-type alkaline phosphatase (Homo sapiens, UniProt P09923); test: Dose Response confirmation of uHTS hits from a small molecule inhibitors of human intestinal alkaline phosphatase via a luminescent assay. [Related pubchem assays (depositor defined):AID2544, AID2574]; type: functional
[16] = HepG2 cell cytotoxicity, dose response, cytotoxicity control for non-replicating M. tuberculosis project (AID 489018); type: functional; details: Mycobacterium tuberculosis
[17] = molecular target: Beta-galactosidase (Escherichia coli, UniProt Q8VNN2); test: detection-enzyme interference by beta-gal modulators – biochemical, E. coli enzyme, set 3, artefact control for CCR6 antagonist project, dose response (AID 504712); type: functional
[18] = molecular target: T4, Streptokinase A (Streptococcus pyogenes serotype M1, UniProt P10520); test: viability-normalized secreted streptokinase activity reduction – plasminogen activation absorbance, OD405, dose response (AID 1914); type: functional, Streptococcus pyogenes M1 GAS;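 also: secreted streptokinase activity via plasminogen activation per viability signal from cell pellet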
T4 sequence (P10520 whole entry): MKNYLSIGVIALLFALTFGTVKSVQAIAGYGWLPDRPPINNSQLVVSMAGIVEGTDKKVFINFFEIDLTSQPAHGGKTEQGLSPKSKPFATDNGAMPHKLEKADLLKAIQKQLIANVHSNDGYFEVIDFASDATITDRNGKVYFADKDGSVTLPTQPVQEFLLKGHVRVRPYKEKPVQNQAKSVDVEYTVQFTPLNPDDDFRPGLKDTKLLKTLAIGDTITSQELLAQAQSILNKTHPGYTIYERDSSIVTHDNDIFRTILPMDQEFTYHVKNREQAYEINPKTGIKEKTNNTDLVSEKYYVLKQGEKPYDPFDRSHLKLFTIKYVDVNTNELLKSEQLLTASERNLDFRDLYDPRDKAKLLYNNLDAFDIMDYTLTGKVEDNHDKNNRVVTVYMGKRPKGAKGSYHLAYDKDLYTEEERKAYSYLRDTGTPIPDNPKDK

[19] = THP-1 cell cytotoxicity, dose response, cytotoxicity control for non-replicating M. tuberculosis project (AID 489025); type: functional
[20] = fluconazole-exposed Candida albicans growth modulators – fluorescence, retest, confirmation (AID 2467); type: functional, cell-based
[21] = test system: Streptococcus sp. 'group A'; test: Streptococcus pyogenes SK(-)GAS viability under kanamycin – luminescence, BacTiterGlo, confirmation, counter-screen for streptokinase expression inhibitor project, dose response (AID 1900); type: functional, organism-based
[22] = Vero E6 cell cytotoxicity, dose response, cytotoxicity control for non-replicating M. tuberculosis project, secondary assay (AID 492998); type: functional, VeroE6; details: Vero C1008
[23] = test system: Streptococcus; test: GAS UMAA2166 growth inhibition – luminescence, BacTiterGlo, counter-screen for streptokinase expression inhibitor project, dose response (AID 1915); type: functional, organism-based;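 also: potency for reduction of bacterial viability or growth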
[24] = NIH-3T3 fibroblast cytotoxicity, dose response, cytotoxicity control, cell-based, fluorescence, Alamar Blue, secondary assay (AID 2327); type: functional;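 also: NIH-3T3 mouse fibroblasts cultured with fluconazole at 8 µg/mL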
[25] = cells; type: functional
[26] = molecular target: T5, Protein skinhead-1 (Caenorhabditis elegans, UniProt P34707); type: functional
T5 sequence (P34707 whole entry): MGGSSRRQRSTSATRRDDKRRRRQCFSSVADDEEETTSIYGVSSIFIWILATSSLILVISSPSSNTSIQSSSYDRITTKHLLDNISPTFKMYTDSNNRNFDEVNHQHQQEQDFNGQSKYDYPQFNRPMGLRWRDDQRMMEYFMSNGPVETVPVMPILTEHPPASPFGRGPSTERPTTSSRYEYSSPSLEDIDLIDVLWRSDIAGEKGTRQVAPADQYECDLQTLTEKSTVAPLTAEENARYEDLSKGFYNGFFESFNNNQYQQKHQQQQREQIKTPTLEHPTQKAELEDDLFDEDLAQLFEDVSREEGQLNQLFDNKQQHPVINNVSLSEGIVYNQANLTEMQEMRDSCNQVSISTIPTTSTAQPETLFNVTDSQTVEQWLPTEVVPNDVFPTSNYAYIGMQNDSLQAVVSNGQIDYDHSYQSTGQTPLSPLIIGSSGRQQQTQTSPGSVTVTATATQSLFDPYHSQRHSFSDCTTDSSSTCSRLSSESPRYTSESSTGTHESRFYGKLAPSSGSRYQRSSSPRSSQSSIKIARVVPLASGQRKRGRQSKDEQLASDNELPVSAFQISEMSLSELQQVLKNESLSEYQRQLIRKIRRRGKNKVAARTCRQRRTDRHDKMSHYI

[27] = molecular target: NACHT, LRR and PYD domains-containing protein 3 (Homo sapiens, UniProt Q96P20); test: NALP3 inhibitors in yeast, dose response, luminescent (AID 488799); type: functional
[28] = molecular target: Voltage-dependent T-type calcium channel subunit alpha-1H (Homo sapiens, UniProt O95180); test: human CACNA1H calcium influx blockade – cell-based, synthetic library set 1, calcium flux (AID 493022); type: functional
[29] = molecular target: FAD-linked sulfhydryl oxidase ALR (Homo sapiens, UniProt P55789); test: ALR-catalysed DTT oxidation blockers – biochemical, H2O2 detection, luminescence, cherry-pick, dose response (AID 493248)
[30] = molecular target: Envelope glycoprotein gp160 (Human immunodeficiency virus 1, UniProt Q6QLK5); test: cell-free HIV fusion peptide-binding blockers – biochemical, uHTS, fluorescence dequenching, […] (AID 1986)

Intestinal-type alkaline phosphatase, sequence (P09923 whole entry): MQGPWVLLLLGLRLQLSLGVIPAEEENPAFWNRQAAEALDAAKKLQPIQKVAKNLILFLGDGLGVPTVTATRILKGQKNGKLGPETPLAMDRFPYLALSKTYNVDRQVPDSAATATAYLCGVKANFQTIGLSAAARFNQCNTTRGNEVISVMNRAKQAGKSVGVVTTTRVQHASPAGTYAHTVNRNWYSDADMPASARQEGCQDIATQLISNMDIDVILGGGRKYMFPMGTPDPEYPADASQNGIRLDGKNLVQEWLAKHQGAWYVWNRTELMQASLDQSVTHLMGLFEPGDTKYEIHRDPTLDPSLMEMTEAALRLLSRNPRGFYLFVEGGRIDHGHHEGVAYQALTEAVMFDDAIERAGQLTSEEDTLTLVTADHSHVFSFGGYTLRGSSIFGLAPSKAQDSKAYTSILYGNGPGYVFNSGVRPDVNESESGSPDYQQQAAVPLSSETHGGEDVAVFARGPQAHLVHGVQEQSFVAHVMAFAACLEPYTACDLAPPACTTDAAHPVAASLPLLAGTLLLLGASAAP
Voltage-dependent T-type calcium channel subunit alpha-1H, sequence (O95180 whole entry): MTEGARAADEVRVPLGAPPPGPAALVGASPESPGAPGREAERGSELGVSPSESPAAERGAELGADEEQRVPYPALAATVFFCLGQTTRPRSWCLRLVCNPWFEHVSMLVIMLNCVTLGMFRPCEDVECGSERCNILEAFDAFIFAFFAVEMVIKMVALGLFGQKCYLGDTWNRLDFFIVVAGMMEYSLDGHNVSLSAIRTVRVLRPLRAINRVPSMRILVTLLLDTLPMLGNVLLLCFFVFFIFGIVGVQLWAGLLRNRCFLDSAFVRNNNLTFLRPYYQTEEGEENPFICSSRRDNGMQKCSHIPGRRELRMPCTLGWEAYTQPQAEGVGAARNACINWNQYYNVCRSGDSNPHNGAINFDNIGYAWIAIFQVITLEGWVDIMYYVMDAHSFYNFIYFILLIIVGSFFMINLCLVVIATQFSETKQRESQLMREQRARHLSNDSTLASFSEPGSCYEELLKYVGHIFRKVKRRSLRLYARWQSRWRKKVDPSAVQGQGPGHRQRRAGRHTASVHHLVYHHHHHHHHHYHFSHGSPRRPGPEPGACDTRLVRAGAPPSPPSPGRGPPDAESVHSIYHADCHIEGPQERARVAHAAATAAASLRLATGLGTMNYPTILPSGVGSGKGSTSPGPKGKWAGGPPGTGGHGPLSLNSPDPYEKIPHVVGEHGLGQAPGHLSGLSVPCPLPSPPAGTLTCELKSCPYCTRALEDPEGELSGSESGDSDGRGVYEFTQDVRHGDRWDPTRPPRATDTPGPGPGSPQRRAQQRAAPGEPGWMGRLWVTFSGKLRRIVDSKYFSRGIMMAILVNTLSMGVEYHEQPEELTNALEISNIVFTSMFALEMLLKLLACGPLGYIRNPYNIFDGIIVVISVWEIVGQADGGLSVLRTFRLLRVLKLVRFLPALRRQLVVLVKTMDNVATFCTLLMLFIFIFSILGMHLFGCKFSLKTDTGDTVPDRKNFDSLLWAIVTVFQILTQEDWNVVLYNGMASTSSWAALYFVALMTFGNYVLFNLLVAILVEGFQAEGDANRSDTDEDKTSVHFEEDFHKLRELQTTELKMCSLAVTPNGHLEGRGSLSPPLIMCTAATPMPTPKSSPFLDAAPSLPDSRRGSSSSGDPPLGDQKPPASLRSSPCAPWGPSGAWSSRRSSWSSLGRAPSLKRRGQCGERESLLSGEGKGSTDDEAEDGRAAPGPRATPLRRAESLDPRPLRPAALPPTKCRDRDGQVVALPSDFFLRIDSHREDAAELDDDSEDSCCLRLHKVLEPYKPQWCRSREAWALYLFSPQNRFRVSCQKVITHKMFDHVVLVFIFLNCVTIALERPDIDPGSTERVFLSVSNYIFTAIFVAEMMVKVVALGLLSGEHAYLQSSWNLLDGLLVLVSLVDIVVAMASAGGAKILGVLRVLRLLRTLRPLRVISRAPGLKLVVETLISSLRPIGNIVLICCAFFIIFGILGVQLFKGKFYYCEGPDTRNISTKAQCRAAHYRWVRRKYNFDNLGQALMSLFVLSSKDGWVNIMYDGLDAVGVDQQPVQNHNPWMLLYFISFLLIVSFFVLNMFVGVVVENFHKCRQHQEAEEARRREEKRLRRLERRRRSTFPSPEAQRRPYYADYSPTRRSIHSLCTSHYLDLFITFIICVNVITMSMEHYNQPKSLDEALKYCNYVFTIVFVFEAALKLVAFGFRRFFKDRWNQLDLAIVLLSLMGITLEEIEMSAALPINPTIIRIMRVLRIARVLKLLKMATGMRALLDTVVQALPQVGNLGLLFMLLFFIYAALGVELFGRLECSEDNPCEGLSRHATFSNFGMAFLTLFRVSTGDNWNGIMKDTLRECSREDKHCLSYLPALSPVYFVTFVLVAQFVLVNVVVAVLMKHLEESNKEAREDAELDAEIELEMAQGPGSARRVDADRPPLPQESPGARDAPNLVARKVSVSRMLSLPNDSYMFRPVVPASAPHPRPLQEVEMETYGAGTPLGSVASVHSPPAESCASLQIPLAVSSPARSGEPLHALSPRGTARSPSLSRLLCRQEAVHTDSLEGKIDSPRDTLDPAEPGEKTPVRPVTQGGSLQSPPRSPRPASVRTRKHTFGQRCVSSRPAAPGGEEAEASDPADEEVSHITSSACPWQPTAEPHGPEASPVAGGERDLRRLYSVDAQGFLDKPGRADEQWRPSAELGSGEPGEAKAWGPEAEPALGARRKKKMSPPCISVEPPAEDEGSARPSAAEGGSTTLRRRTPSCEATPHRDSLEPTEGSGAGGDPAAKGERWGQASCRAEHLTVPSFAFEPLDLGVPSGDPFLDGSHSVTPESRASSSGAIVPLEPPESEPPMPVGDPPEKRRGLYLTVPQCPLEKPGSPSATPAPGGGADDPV
CAAX prenyl protease 2, sequence (Q03530 whole entry): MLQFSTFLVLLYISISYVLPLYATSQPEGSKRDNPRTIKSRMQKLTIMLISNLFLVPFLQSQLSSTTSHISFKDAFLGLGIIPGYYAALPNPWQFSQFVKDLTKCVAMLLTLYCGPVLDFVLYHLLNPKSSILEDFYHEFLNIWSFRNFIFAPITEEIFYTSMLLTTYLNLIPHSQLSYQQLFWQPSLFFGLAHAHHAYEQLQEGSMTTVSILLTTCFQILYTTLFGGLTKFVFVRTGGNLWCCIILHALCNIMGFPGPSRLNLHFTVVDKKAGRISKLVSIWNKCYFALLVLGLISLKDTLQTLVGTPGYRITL
NACHT, LRR and PYD domains-containing protein 3, sequence (Q96P20 whole entry, the tested form may be a part): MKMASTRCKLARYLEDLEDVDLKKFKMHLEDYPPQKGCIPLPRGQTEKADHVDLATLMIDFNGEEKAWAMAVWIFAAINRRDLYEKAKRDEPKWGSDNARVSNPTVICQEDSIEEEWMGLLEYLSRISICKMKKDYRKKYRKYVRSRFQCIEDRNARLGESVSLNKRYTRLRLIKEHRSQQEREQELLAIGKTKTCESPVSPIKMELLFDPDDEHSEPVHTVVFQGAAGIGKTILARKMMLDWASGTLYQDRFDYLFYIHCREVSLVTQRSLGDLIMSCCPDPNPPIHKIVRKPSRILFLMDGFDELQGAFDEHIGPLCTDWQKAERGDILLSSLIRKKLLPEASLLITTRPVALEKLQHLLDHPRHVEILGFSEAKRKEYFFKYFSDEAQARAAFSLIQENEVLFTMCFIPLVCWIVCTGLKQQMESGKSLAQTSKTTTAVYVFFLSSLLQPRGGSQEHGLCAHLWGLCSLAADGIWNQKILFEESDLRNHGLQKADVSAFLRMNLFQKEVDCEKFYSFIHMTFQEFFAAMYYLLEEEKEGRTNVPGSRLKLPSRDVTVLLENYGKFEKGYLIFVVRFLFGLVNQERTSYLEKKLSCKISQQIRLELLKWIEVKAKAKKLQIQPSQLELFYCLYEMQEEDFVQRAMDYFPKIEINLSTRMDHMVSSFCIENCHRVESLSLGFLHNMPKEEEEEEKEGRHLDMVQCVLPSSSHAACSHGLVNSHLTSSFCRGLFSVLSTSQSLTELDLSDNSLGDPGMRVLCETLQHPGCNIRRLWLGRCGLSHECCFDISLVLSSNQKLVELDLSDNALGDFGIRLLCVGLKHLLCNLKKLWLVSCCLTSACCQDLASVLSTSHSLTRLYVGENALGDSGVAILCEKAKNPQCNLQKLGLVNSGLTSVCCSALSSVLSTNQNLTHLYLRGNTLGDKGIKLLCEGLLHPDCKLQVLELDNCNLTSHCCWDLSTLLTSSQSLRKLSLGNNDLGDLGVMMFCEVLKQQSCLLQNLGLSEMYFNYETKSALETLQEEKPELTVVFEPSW
FAD-linked sulfhydryl oxidase ALR, sequence (P55789 whole entry, the tested form may be a part): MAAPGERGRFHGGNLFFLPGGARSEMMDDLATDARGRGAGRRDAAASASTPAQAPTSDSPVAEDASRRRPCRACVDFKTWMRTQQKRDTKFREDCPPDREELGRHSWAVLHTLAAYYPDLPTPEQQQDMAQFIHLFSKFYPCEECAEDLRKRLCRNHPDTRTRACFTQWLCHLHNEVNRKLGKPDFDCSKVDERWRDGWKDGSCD

CCCCN(C)CCNC(=O)c1cc2c(-c3cccc(OC)c3)nn(C)c2s1
EC50 [1]: 0.07 µM (active) | IC50 [2]: > 20 µM (inactive) | AC50 [3]: 31.5 µM (active) | AC50 [4]: 16 µM (active)

CC1CCCC(C)N1CCCNC(=O)c1cc2c(s1)-c1ccccc1OC2 (stereo not given)
CC50 [5]: 18.2 µM (active) | IC50 [6]: > 25 µM (active) | IC50 [7]: 11.8 µM (active) | AC50 [8]: 12.5 µM (active) | CC50 [9]: 11 µM (active) | CC50 [10]: > 25 µM (active) | IC50 [11]: > 40 µM (active) | IC50 [12]: 19 µM (active) | CC50 [13]: 12.4 µM (active) | CC50 [14]: 24.3 µM (active)

CC(=O)N1CCOc2ccc(S(=O)(=O)N3CCCC(C)C3)cc21 (stereo not given)
IC50 [15]: > 100 µM (inactive)

CN(C)CCCNc1cc(C(C)(C)C)nc2c(-c3ccc(Cl)cc3)cnn12
CC50 [16]: 13 µM (active) | IC50 [2]: > 20 µM (inactive) | IC50 [17]: > 66.6 µM (inactive) | EC50 [18]: > 150 µM (not active) | CC50 [19]: 11.4 µM (active) | EC50 [20]: > 38 µM (not active) | EC50 [21]: 1.91 µM (active) | CC50 [22]: 10.8 µM (active) | EC50 [23]: 8.08 µM (active) | EC50 [24]: 12.5 µM (active) | IC50 [25]: 12.4 µM (active) | IC50 [26]: > 100 µM (inactive)

Brc1ccc(-n2cnc(-c3ccccc3)c2)cc1
IC50 [27]: 35.4 µM (active) | IC50 [26]: > 100 µM (inactive)

Cc1ccc(-c2nnc(NC(=O)COc3ccccc3F)o2)cc1C
EC50 [28]: 2.3 µM (active)

O=C(O)c1cccc2c(-c3ccccc3)c(-c3ccccc3)[nH]c12
AC50 [29]: 4.56 µM (active) | EC50 [18]: 15.6 µM (active) | IC50 [30]: 16.8 µM (active) | EC50 [21]: 6.24 µM (active) | EC50 [23]: > 150 µM (not active)

Reference: ChEMBL document CHEMBL1201862, “PubChem BioAssay data set” (2004)
